Results as given in publication PMC11508334, “In Vitro Evaluation of New 5-Nitroindazolin-3-one Derivatives as Promising Agents against Trypanosoma cruzi” (International Journal of Molecular Sciences, 2024).

What was measured:
[1] = test system: T. cruzi epimastigote stage (Dm28c strain); assay: Epimastigotes viability study (MTT); format: cell-based, Trypanosoma cruzi; conditions: for SI Epimastigote: Selectivity Index IC50 macrophages RAW 264.7/IC50 epimastigotes Dm28c; for IC50: Trypanosoma cruzi, T. cruzi Dm28c epimastigotes, 24 h, MTT
Procedure: The trypanocidal activity was evaluated against the T. cruzi epimastigote stage (Dm28c strain). It was measured through the MTT assay using 0.22 mg/mL phenazine methosulfate (as an electron carrier). T. cruzi epimastigote from the author's collection (Programa de Farmacología Molecular y Clínica, Facultad de Medicina, Universidad de Chile, Santiago, Chile) were grown at 28 °C in liver infusion tryptase (LIT) medium, as reported earlier, but replacing blood with 4 μM hemin. […] fetal bovine serum (FBS) was added to a final concentration of 10% v/v. In this colorimetric assay for testing the trypanocidal activity, the compounds were dissolved in DMSO. They were added to 3 × 10^6 parasites/mL at 100 μM final concentrations in RPMI 1640 culture medium without phenol red for 24 h at 28 °C. The final concentration of DMSO was less than 0.1% v/v. […] The MTT assay, which was described previously, determined the viability of the epimastigotes.

RAW 264.7 cells [2] = assay: Cytotoxicity MTT assay on RAW 264.7 cells; format: cell-based; conditions: Mus musculus, RAW264.7, in vitro cytotoxicity, murine RAW 264.7 macrophages
Procedure: The compounds under study, dissolved in dimethylsulfoxide (DMSO), were added to the culture media at 10–200 μM. RAW 264.7 cells were cultured in 96-well plates (5 × 10^4 cells per well), and 100 μL of 0.5 mg/mL MTT was added to each well. The DMSO final concentration was less than 0.1% v/v. After incubation for 4 h at 37 °C, the generated water-insoluble formazan dye was dissolved by adding 100 μL of 10% w/v sodium dodecyl sulfate (SDS) in 0.01 M HCl. The plates were further incubated overnight at 37 °C; […] 0.5% of Triton X-100 was added as a positive control. The plates were further incubated overnight at 37 °C, and the optical density of the wells was determined using a microplate reader (Asys Expert Plus©, Asys Hitachi, Vienna, Austria) at 570 nm. Under these conditions, the optical density is directly proportional to the viable cell number in each well. All experiments were performed at least thrice and data were reported as means and their standard deviations from triplicate cultures. Results are reported as IC50 regarding the control (uninfected cells in culture medium)

Dm28c trypomastigotes = assay: Trypomastigote viability study (MTT); format: cell-based, Trypanosoma cruzi; conditions: for IC50: Trypanosoma cruzi, T. cruzi Dm28c trypomastigotes, 24 h, MTT; for SI Trypomastigote: Selectivity Index IC50 macrophages RAW 264.7/IC50 trypomastigotes Dm28c
Procedure: Vero cells (ATCC CCL-81) were infected with Dm28c trypomastigotes at a 1:3 (cell: parasite) ratio. T. cruzi trypomastigotes were initially obtained from primary cultures of peritoneal macrophage from chagasic mice. […] Vero cell cultures were then infected with trypomastigotes and incubated at 37 °C in humidified air and 5% CO2 for 5–7 days. After that time, the culture medium was collected and centrifuged at 500× g for 5 min. The trypomastigote-containing pellet was re-suspended in RPMI 1640 supplemented with inactivated FBS and penicillin–streptomycin at a final 1 × 10^7 parasites/mL density. Trypomastigote viability assays were performed using the MTT reduction method as described previously. Then, 1 × 10^7 parasites/mL was incubated in RPMI 1640 with inactivated FBS at 37 °C for 24 h with or without the studied compounds.

CL-B5 epimastigotes = test system: CL-B5 epimastigotes; set-up: method as in PMID 23124218; conditions: cited from earlier work
[3] = Cyclic voltammetry, reduction of nitro group; format: physicochemical; conditions: for −EpaIII: anodic peak potential of couple IIIc/IIIa; for −EpaIII / −EpcIII / −E1/2: given with inverted sign, vs. Ag/AgCl electrode in DMSO; for −EpcIII: cathodic peak potential of couple IIIc/IIIa; for Ipa/Ipc: current ratio RNO2/RNO2•−, couple IIIc/IIIa, DMSO; for −E1/2: half-wave potential of couple IIIc/IIIa
Procedure: Cyclic Voltammetry (CV) was carried out using a Metrohm Autolab instrument model PGSTAT204, using dimethyl sulfoxide (DMSO) as the solvent (1 mM solutions), tetrabutylammonium perchlorate (0.1 M TBAP) as the supporting electrolyte, a hanging drop mercury electrode (HDME) as the working electrode, Ag/AgCl (3M KCl) as the reference electrode, and a graphite rod as the counter electrode. All measurements were performed after bubbling with nitrogen (N2) for 10 min.
Using Nicholson’s procedure, the Ipa/Ipc values (RNO2/RNO2^•−) were measured from each cyclic voltammogram with a scan rate between 0.1 and 2.5 V/s.

RAW 264.7 cells [4] = assay: Plasma membrane permeability (SYTOX Green) of RAW 264.7 cells; format: cell-based, murine
[5] = test system: trypomastigote form of T. cruzi; assay: Analysis of ATP levels (CellTiter-Glo); format: cell-based, Trypanosoma cruzi; conditions: trypomastigotes; relative to negative control
Procedure: The CellTiter-Glo® Luminescent Cell Viability Assay (Promega, Fitchburg, WI, USA) was used to detect variations in ATP levels. After incubation, treated parasites were centrifuged (6000 rpm, 10 min, 4 °C) and treated according to the manufacturer’s instructions. Luminescence was determined using the Varioskan™ LUX multi-mode microplate reader (ThermoFisher Scientific). Results were expressed as a percentage relative to the negative control without treatment. Sodium azide (20 mM NaN3 for 3 h) was added as a positive control and benznidazole as a reference treatment. (1) %relative control=luminescence sample/luminescence control∗100

[6] = test system: trypomastigotes of T. cruzi; assay: Plasmatic membrane permeability assay (SYTOX Green) on trypomastigotes; format: cell-based, Trypanosoma cruzi; conditions: compound at IC50, 1 h
Procedure: Late growth-phase trypomastigotes of T. cruzi (3 × 10^6/well) were washed and incubated in the dark with 1 μM SYTOX Green probe (Molecular Probes) in HANKS′ balanced salts solution (HBSS; Sigma-Aldrich) supplemented with 10 mM D-glucose (HBSS + Glu). The test compound was added at IC50, and fluorescence was measured after 1 h of treatment. The maximum permeabilization was obtained with 0.5% Triton X-100. Fluorescence intensity was determined using Varioskan™ LUX multimode microplate reader (ThermoFisher Scientific, Waltham, MA, USA), with excitation and emission wavelengths of 485 and 520 nm, respectively. The following internal controls were used in the evaluation: (i) the background fluorescence of the compound at the respective wavelengths and (ii) the possible interference of DMSO. Samples were tested in triplicate.

[7] = test system: Dm28c trypomastigote of T. cruzi; assay: Mitochondrial membrane potential (TMRM incorporation); format: cell-based, Trypanosoma cruzi; conditions: trypomastigotes, compound at IC50, 3 h; compared to negative control
Procedure: Mitochondrial membrane potential (ψm) was determined by the incorporation of the fluorescent probe tetramethylrhodamine methyl ester (TMRM). […] Then, carbonylcyanide-m-chlorophenylhydrazone (CCCP, 10 µM) was added as a control and incubated at 37 °C in humidified air and 5% CO2 for 3 h. Parasites were washed with phosphate-buffered saline (pH 7.4), and suspensions were incubated with TMRM (50 nM) for 15 min. Fluorescence measurements determined the incorporation of the probe at an excitation wavelength of 550 nm and an emission of 590 nm. All the assays were performed in darkness.

IC50 [1] [µM] | −EpaIII [3] [V] | −EpcIII [3] [V] | Ipa/Ipc [3] | −E1/2 [3] [V] | melting point [°C] | SMILES | SI Epimastigote [1] | IC50 (RAW 264.7 cells [2]) [µM] | IC50 (Dm28c trypomastigotes) [µM] | trypanocidal activity against CL-B5 epimastigotes (CL-B5 epimastigotes) | effect on plasma membrane permeability (SYTOX Green incorporation) (RAW 264.7 cells [4]) | SI Trypomastigote (Dm28c trypomastigotes) | ATP levels [5] | alteration of plasma membrane permeability (SYTOX Green incorporation) [6] | effect on mitochondrial membrane potential (ψm) [7]
8.9 ± 1.3 | 0.95 | 1.13 | 0.99 | 1.04 |  | Cn1[nH]c2ccc([N+](=O)[O-])cc2c1=O [Compound 3a] | 2.9 | 26.1 ± 0.8 | 18.5 ± 0.9 |  | significantly affect permeability | 1.4 |  |  | 
28.6 ± 2.1 | 1.03 | 1.13 | 1.00 | 1.08 |  | Cn1c(=O)c2cc([N+](=O)[O-])ccc2n1C [Compound 3b] |  | > 200 | 41.8 ± 1.1 |  |  | >4.8 | significantly reduced ATP levels | alter plasma membrane permeability | statistically significant impact

More lines, now with the values behind:

SMILES | IC50 [1] [µM] | −EpaIII [3] [V] | −EpcIII [3] [V] | Ipa/Ipc [3] | −E1/2 [3] [V] | melting point [°C] | SI Epimastigote [1] | IC50 (RAW 264.7 cells [2]) [µM] | IC50 (Dm28c trypomastigotes) [µM] | trypanocidal activity against CL-B5 epimastigotes (CL-B5 epimastigotes) | effect on plasma membrane permeability (SYTOX Green incorporation) (RAW 264.7 cells [4]) | SI Trypomastigote (Dm28c trypomastigotes) | ATP levels [5] | alteration of plasma membrane permeability (SYTOX Green incorporation) [6] | effect on mitochondrial membrane potential (ψm) [7]
Cn1c2ccc([N+](=O)[O-])cc2c(=O)n1Cc1ccccc1 [Compound 1] | 10.1 ± 0.6 | 1.02 | 1.12 | 0.94 | 1.07 |  | 3.7 | 37.8 ± 1.2 | > 100 | effective against CL-B5 epimastigotes |  |  |  |  | 
CCCn1c2ccc([N+](=O)[O-])cc2c(=O)n1Cc1ccccc1 [Compound 2a] |  |  |  |  |  |  |  |  |  | effective against CL-B5 epimastigotes |  |  |  |  | 
CC(C)n1c2ccc([N+](=O)[O-])cc2c(=O)n1Cc1ccccc1 [Compound 2b] |  |  |  |  |  |  |  |  |  | effective against CL-B5 epimastigotes |  |  |  |  | 
Cn1c2ccc([N+](=O)[O-])cc2c(=O)n1Cc1ccc(Cl)cc1 [Compound 11, 2-(4-Chlorobenzyl)-1-methyl-5-nitro-1,2-dihydro-3H-indazol-3-one] | 70.1 ± 2.1 | 0.99 | 1.21 | 0.89 | 1.10 | 128 to 130 | 1.0 | 68.8 ± 1.2 | 67.8 ± 1.7 |  | significantly affect permeability | 1.0 |  |  | 
Cn1c2ccc([N+](=O)[O-])cc2c(=O)n1Cc1cccc(Br)c1 [Compound 13, 2-(3-Bromobenzyl)-1-methyl-5-nitro-1,2-dihydro-3H-indazol-3-one] | 79.8 ± 2.3 | 0.99 | 1.13 | 0.97 | 1.06 | 149 to 151 | >2.5 | > 200 | 43.6 ± 1.1 |  |  | >4.6 | significantly reduced ATP levels | alter plasma membrane permeability | statistically significant impact
COc1ccccc1Cn1c(=O)c2cc([N+](=O)[O-])ccc2n1C [Compound 15, 2-(2-Methoxybenzyl)-1-methyl-5-nitro-1,2-dihydro-3H-indazol-3-one] | > 100 | 1.04 | 1.16 | 0.96 | 1.10 | 210 to 212 |  | 36.3 ± 1.1 | > 100 |  | significantly affect permeability |  |  |  | 
O=c1[nH]n(-c2ccccc2)c2ccc([N+](=O)[O-])cc12 [Compound 22] | 6.2 ± 0.9 | 1.26 |  | 0.59 | 1.33 |  | >32.3 | > 200 | 15.3 ± 1.2 |  |  | >13.1 | significantly reduced ATP levels | alter plasma membrane permeability | statistically significant impact
